Where a name gives a salt, the structure may show the parent alone.
Key:
[1] = test system: primary cell culture of the rat anterior pituitary; assay: Inhibition of growth hormone (GH) secretion from primary cell culture; assay type: cell-based; conditions: GHRH-stimulated, 37° C. for 3 hours; for EC50: Rattus norvegicus, GH by RIA, read-out: ED50 values, inhibition of GH secretion
Protocol: The anterior pituitaries were excised from the decapitated skull of 40 unanesthetized male rats of 8 weeks of age. The anterior pituitaries were placed in a laboratory dish containing the buffer A (consisting of 137 mM of sodium chloride, 5 mM of potassium chloride, 0.7 mM of disodium hydrogen phosphate, 25 mM of 2-[4-(2-hydroxyethyl)-1-piperazinyl]ethane sulfonic acid (HEPES) (pH 7.3), and 50 μg/ml of gentamicin sulfate] and washed once with the buffer A. Each anterior pituitary was cut into 4 pieces by scissors and washed twice again. The pieces of the anterior pituitaries were incubated in 30 ml of Enzyme Solution I [buffer A solution containing 0.4% of collagenase (Boehringer Mannheim), 0.4% of bovine serum albumin, 10 μg/ml of deoxyribonuclease (Sigma) and 0.2% of glucose] at 37° C. under shaking for 1 hour. After dispersion of the pieces of the anterior pituitaries by a Komagome pipette, the solution was centrifuged (480×g, for 6 minutes). The supernatant was discarded. The sediment was suspended in 30 ml of Enzyme Solution II [buffer A solution containing 0.25% of pancreatin (Sigma)] and incubated at 37° C. under shaking for 8 minutes. After adding 2 ml of fetal calf serum, the cell suspension was centrifuged (480×g, for 6 minutes) again and the supernatant was discarded. The sediment was suspended in 10 ml of Medium I [Dulbecco modified Eagle's Medium (DMEM) containing 10% of fetal calf serum, 20 mM of HEPES (pH 7.3), 50 U/ml of penicillin G and 50 μg/ml of streptomycin] and filtered through nylon mesh. The cells thus obtained were washed twice with 10 ml of Medium I. The number of the cells was counted, and the cells were suspended in Medium I in the cell density of 1.5×10^5 cells/ml. The aliquots of 1 ml each of the cell suspension were placed in the wells of 24-well plate and incubated at 37° C. for 3 days in the carbon dioxide incubator under 5% carbon dioxide-95% air environment. The cells were washed twice with 1 ml of Medium II (Medium I containing 0.2% bovine serum albumin instead of 10% fetal calf serum) and then incubated in 1 ml of Medium II for 1 hour. The supernatant was discarded. To each well of the 24-well plate 0.8 ml each of Medium II was added, and 0.1 ml of Medium II containing somatostatin-14 (SS-14) or the compound of Example 5 or the compound of Example 102 in the concentration of 10 times the final concentration and 0.1 ml of 10 nM growth hormone releasing hormone (GHRH) were added thereto. After incubation at 37° C. for 3 hours, 0.6 ml of the supernatant of the each well was collected to obtain a supernatant solution by the centrifugation on 1,000×g for 8 minutes. GH concentrations in the supernatant were determined by radioimmunoassay (RIA) kit of Amersham.

[2] = target: T1, human somatostatin receptor SSTR1 (Homo sapiens, UniProt P30872); assay: Binding inhibition of 125I-somatostatin, CHO cell membrane fraction; conditions: 125I-somatostatin binding, 25° C. for 60 minutes, read-out: Activities for human somatostatin receptor (IC50 value) SSTR1
T1 construct: expressed in transfected cells; host or cells: CHO (dhfr-) cells, strain SSTR1-8-3
T1 sequence (P30872 whole entry): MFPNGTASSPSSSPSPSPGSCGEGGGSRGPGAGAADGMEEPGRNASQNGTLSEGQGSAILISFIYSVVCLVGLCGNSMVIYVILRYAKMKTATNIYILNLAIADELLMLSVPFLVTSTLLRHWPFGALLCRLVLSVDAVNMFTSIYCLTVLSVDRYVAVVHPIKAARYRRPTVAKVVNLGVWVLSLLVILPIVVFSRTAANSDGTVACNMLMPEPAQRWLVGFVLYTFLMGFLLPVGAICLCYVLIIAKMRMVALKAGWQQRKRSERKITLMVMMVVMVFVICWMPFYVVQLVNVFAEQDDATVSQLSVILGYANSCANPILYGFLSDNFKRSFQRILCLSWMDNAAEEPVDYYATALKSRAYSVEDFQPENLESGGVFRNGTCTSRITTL
Protocol: A human somatostatin receptor expression CHO cell strain, SSTR1-8-3, SSTR2-HS5-9, SSTR3-15-19, SSTR4-1-2 or SSTR5-32-4 (10^9), was suspended in a phosphate buffered saline containing 5mM of EDTA (PBS-EDTA). The suspension was centrifuged. To the cell pellet was added 10 ml of a homogenation buffer solution for cells (10 mM NaHCO3, 5 mM EDTA, pH=7.5). The mixture was homogenized by a Politron homogenizer and centrifuged at 400×g for 15 minutes. The supernatant obtained was farther centrifuged at 100,000×g for an hour to obtain a precipitate of the membrane fraction. The precipitate was suspended in 2 ml of a buffer solution for assay ([…], 0.1% of BSA (bovine serum albumin) and […], 1 μ/ml of pepstatin, 20 μg/ml of leupeptin, 10 μg/ml of phosphoramide, pH=7.5). The suspension was centrifuged at […] for an hour. The membrane fraction recovered as precipitate was suspended again in 20 ml of buffer solution for assay. The suspension was placed in tubes and stored at −80° C. The suspension was thawed when used, and used at every use.
The membrane fraction prepared in Example 1 was diluted with a buffer solution for assay to adjust the concentration to 3 μg/ml. The diluate was placed in tubes each in quantity of 173 μl. To this were simultaneously added 2 μl of a solution of a compound in DMSO and 25μl of a 200pM radioisotope-labeled somatostatin (^125I-somatostatin: Amersham) solution. For measurement of the maximum binding, a reaction mixture added with 2 μl of DMSO and 25μl of a 200pM ^125I-somatostatin solution was prepared. For measurement of non-specific binding, a reaction mixture added with 2 μl of a 100 μM somatostatin solution diluted in DMSO and 25 μl of a 200pM ^125I-somatostatin solution was prepared at the same time. The mixtures were allowed to react at 25° C. for 60 minutes. Then, the reaction mixture was filtered by aspiration using a GF/B glass fiber filter paper (Whatman) treated with polyethylenimine. After filtration, the radioactivity of 125I-somatostatin remaining on the filter paper was measured by a γ-counter.
The binding rate (%) of each compound was calculated by the formula: […]
(where PBM: Percent maximum Binding, B: radioactivity when a compound was added, Bo: maximum binding radioactivity, NSB: non-specific binding radioactivity). The binding rates were calculated by changing the concentrations of the compound to obtain the 50% inhibiting concentration of the compound (IC50 value) by the Hil l plots.
The activities (IC50 value, μM) of the compounds for each human somatostatin receptor obtained by the above method are shown in the following Table 5.

Row | SMILES | GH secretion from the primary cell culture of rat anterior pituitary [1] | EC50 [1] [nM] | IC50 [2] [nM]
1 | NCc1cccc(C2OC(CC(=O)NCc3ccccc3F)C(=O)N(Cc3ccc(-c4ccccc4)cc3)c3ccc(Cl)cc32)c1 (stereo not drawn) [Example 5, 3,5-Trans-N-(2-fluorobenzyl)-5-(3-aminomethylphenyl)-1-(4-biphenylmethyl)-7-chloro-2-oxo-1,2,3,5-tetrahydro-4,1-benzoxazepine-3-acetamide•monohydrochloride] | inhibited dose-dependently | 8 | 
2 | NCc1cccc(C2OC(CC(=O)NCc3ccccc3F)C(=O)N(Cc3ccc(O)cc3)c3ccc(Cl)cc32)c1 (stereo not drawn) [Example 102, 3,5-Trans-N-(2-fluorobenzyl)-5-(3-aminomethylphenyl)-7-chloro-1-(4-hydroxybenzyl)-2-oxo-1,2,3,5-tetrahydro-4,1-benzoxazepine-3-acetamide•monohydrochloride] | inhibited dose-dependently | 10 | > 1000
